Consider 1 compound from US20050137222A1, “Treatment of insomnia in human patients” (H. Lundbeck A/S, priority 2003, published 2005).

The test system of assay [1] is adult subjects with primary insomnia. The assay can be described thus: Polysomnograph (PSG) study in adult subjects with primary insomnia. Type of assay: in vivo, human. On the procedure: (§1) Effect is confirmed for short-term treatment in studies using acute treatment in healthy subjects exposed to a phase advance model. Assessment of effect on insomnia during intermediate term treatment duration is performed in primary insomnia subjects using treatment duration up to 4 weeks. Long term or chronic treatment is assessed in 12 month safety studies. Subject populations include primary insomnia subjects with age range 18-65 yrs (adults) and 65 and above (elderly).
(§2) Sleep maintenance is measured by either of parameters wakefulness after sleep onset, number of awakenings after sleep onset or total sleep time. […] In these studies, the effect was also confirmed by the subjects own feelings of the sleep initiation. Based both on PSG and on subjective diary recording, gaboxadol doses of 5 to 15 mg are highly preferred to achieve effect in adults and elderly (gaboxadol was administered from ½ hour before bedtime up to immediately before going to bed).

The subject of assay [2] is healthy subjects exposed to a phase advance model. The assay can be described thus: Phase advance model in healthy subjects (PSG and subjective recording). Type of assay: in vivo, human. The protocol:
as §1, §2

The next assay concerns human subjects. Description: EEG slow wave sleep and spectral analysis in the clinical studies. Type of assay: in vivo. To be noted: similar effect range as for slow wave sleep. The source says: Moreover, gaboxadol induced a dose-dependent increase in duration of slow wave sleep (SWS), that is, stages 3 and 4, which is considered the deepest stage of sleep. The effect ranged between +15 and 46% compared to placebo.

In assay [3] the test system is adult (18-65 yrs) primary insomnia subjects. Description: 3 week placebo controlled parallel group outpatient study of daytime performance (VAS, Sheehan disability scale). To be noted: doses 5, 10 and 15 mg, about ½ hour before bedtime; 3 weeks; effect more pronounced during week 2 and 3. Type of assay: in vivo, human. The protocol: The daytime performance (used interchangeably with daytime function) in adult (18-65 yrs) primary insomnia subjects (Diagnostic and Statistical Manual of Mental Disorders—Fourth Edition, […]) has been assessed in a 3 week placebo controlled parallel group, outpatient study. The performance was measured with standardized questions using a 100 point Visual Analogue Scale (VAS). The questions asked for subjects to report on their daytime ability to function, tiredness, energy and relaxedness. Subject responses were recorded in a diary in the evening on the day after each treatment night (gaboxadol was administered about ½ hour before bedtime). Moreover, daytime function was recorded once weekly using the Sheehan disability scale (Sheehan et al., 1996, “The measurement of disability,” International Clinical Psychopharmacology 11 (suppl. 3), 89-95).

The test system of a further assay is animals. As to conditions: cited from earlier work.
The subject of a further assay is healthy human subjects. As to conditions: cited from earlier work.

Consider `Oc1noc2c1CCNC2` [gaboxadol, 4,5,6,7-tetrahydroisoxazolo(5,4-c)pyridin-3-ol], for which, in assay [1] (adult subjects with primary insomnia, oral, from ½ hour before bedtime up to bedtime), the “sleep maintenance as measured by polysomnograph (wakefulness after sleep onset, number of awakenings after sleep onset or total sleep time)” value is recorded as “improves sleep maintenance”. The sleep initiation result in assay [1] (primary insomnia subjects, confirmed by subjects' own feelings) was “facilitated sleep initiation”. In addition, the “sleep maintenance as measured by polysomnograph (wakefulness after sleep onset, number of awakenings after sleep onset or total sleep time)” value in assay [2] (healthy subjects, phase advance model) is recorded as “improves sleep maintenance”. In addition, the “subjects' own perception of the sleep maintenance effect” value in assay [2] (healthy subjects, phase advance model, subjective) is given as “decreased wakefulness”. Also, in assay [2] (oral, study not clearly specified in the text), the “lowest dose at which the sleep maintenance effect was observed” value is “about 5 mg per day”. For the same compound, the sleep initiation entry in assay [2] (subjects in a phase advance model, confirmed by subjects' own feelings) is listed as “facilitated sleep initiation”. Also, the “slow wave activity in EEG spectral analysis” value in the assay with human subjects was “increase of slow wave activity”. In assay [3], the “daytime performance (weekly means of VAS questions and Sheehan disability scale)” value was “significantly improve daytime performance”. Besides, in the assay with animals, the “nonREMS amount and nonREMS/REMS episode duration” value was “increasing total amount of nonREMS and lengthening the duration of the nonREMS and REMS episodes”. Also, in the assay with healthy human subjects, the deep sleep entry is reported as “promote deep sleep”, the “influence on REM sleep” value is recorded as “no disrupting influence on REM sleep” and the sleep maintenance entry is recorded as “increase sleep maintenance”.
